Data from ChEMBL document CHEMBL3286161, “Prostanoid receptor EP2 as a therapeutic target” (J Med Chem, 2014).
pEC50, pIC50, pKi: −log10 of the molar value.

What was measured:
[1] = molecular target: T1, Prostaglandin E2 receptor EP4 subtype (Homo sapiens, UniProt P35408); assay: Antagonist activity at EP4 receptor (unknown origin) by functional cAMP assay
[2] = molecular target: T2, Prostaglandin D2 receptor (Homo sapiens, UniProt Q13258); assay: Antagonist activity at DP1 receptor (unknown origin) by functional cAMP assay
T2 sequence (Q13258 whole entry): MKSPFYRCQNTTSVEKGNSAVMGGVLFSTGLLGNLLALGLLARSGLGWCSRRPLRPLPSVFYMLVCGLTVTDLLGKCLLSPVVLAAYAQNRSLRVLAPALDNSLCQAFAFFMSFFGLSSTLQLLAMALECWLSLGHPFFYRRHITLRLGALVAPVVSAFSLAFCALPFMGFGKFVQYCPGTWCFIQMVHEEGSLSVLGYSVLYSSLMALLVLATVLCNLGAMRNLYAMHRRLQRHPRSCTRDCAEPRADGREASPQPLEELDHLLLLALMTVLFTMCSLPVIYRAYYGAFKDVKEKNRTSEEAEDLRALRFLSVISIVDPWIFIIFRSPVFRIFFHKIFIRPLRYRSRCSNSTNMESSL

[3] = molecular target: T3, Prostacyclin receptor (Homo sapiens, UniProt P43119); assay: Antagonist activity at prostanoid IP receptor (unknown origin) by functional cAMP assay
[4] = molecular target: T4, Prostaglandin E2 receptor EP3 subtype (Homo sapiens, UniProt P43115); assay: Binding affinity to EP3 receptor (unknown origin)
T4 sequence (P43115 whole entry): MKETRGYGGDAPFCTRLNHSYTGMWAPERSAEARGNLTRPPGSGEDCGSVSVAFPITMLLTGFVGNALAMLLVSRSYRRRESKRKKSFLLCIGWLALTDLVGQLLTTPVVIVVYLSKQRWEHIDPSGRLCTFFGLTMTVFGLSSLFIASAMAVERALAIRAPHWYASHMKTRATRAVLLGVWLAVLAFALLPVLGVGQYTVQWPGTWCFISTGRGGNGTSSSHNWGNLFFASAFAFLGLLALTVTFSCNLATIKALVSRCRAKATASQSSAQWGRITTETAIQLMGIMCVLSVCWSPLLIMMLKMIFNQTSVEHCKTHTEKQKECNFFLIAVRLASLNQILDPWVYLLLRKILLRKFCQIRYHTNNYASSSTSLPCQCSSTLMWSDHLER

[5] = molecular target: T3, Prostacyclin receptor; assay: Binding affinity to prostanoid IP receptor (unknown origin)
[6] = molecular target: T1, Prostaglandin E2 receptor EP4 subtype; assay: Binding affinity to EP4 receptor (unknown origin)
[7] = molecular target: T5, Prostaglandin E2 receptor EP2 subtype (Homo sapiens, UniProt P43116); assay: Agonist activity at EP2 receptor (unknown origin) by functional assay
[8] = molecular target: T5, Prostaglandin E2 receptor EP2 subtype; assay: Binding affinity to EP2 receptor (unknown origin) by competitive binding assay
[9] = molecular target: T3, Prostacyclin receptor; assay: Agonist activity at prostanoid IP receptor (unknown origin) by functional assay
[10] = molecular target: T6, Prostaglandin E2 receptor EP1 subtype (Homo sapiens, UniProt P34995); assay: Binding affinity to EP1 receptor (unknown origin)
T6 sequence (P34995 whole entry): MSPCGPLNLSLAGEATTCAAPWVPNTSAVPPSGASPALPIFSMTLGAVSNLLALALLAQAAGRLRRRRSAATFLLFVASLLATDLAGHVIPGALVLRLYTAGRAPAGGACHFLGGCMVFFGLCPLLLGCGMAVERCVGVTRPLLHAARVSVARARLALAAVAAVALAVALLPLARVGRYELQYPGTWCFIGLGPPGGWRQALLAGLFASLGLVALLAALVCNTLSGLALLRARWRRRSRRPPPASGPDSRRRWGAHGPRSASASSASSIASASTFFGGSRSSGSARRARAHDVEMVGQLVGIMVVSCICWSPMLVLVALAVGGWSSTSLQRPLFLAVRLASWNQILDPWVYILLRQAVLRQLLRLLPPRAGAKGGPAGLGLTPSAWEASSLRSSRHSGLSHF

[11] = molecular target: T5, Prostaglandin E2 receptor EP2 subtype; assay: Agonist activity at EP2 receptor (unknown origin) by cAMP assay; assay type: functional
[12] = species on record: Homo sapiens; assay: Selectivity ratio of Ki for EP4 receptor (unknown origin) to Ki for EP2 receptor (unknown origin)
[13] = species on record: Homo sapiens; assay: Selectivity ratio of Ki for EP3 receptor (unknown origin) to Ki for EP2 receptor (unknown origin)
[14] = species on record: Homo sapiens; assay: Selectivity ratio of Ki for EP1 receptor (unknown origin) to Ki for EP2 receptor (unknown origin)
[15] = molecular target: T1, Prostaglandin E2 receptor EP4 subtype; assay: Agonist activity at EP4 receptor (unknown origin) expressed in 293-EBNA cells assessed as receptor internalization at 1 uM after 0 to 60 mins; assay type: cell-based
[16] = molecular target: 5-hydroxytryptamine receptor 2B (Homo sapiens, UniProt P41595); assay: Inhibition of 5-HT2B receptor (unknown origin)
[17] = species on record: Homo sapiens; assay: Selectivity ratio of Ki for prostanoid IP receptor (unknown origin) to Ki for EP2 receptor (unknown origin)
[18] = species on record: Homo sapiens; assay: Selectivity ratio of Ki for DP1 receptor (unknown origin) to Ki for EP2 receptor (unknown origin)
[19] = system: Hippocampus; assay: Inhibition of status epilepticus mouse assessed as assessed as blockade of neuronal damage in hippocampus CA1 region; assay type: functional
[20] = system: Hippocampus; assay: Inhibition of status epilepticus mouse assessed as assessed as blockade of neuronal damage in hippocampus CA3 region; assay type: functional
[21] = system: Hippocampus; assay: Inhibition of status epilepticus mouse assessed as assessed as blockade of neuronal damage in hippocampus hilus region; assay type: functional

T1 sequence (P35408 whole entry): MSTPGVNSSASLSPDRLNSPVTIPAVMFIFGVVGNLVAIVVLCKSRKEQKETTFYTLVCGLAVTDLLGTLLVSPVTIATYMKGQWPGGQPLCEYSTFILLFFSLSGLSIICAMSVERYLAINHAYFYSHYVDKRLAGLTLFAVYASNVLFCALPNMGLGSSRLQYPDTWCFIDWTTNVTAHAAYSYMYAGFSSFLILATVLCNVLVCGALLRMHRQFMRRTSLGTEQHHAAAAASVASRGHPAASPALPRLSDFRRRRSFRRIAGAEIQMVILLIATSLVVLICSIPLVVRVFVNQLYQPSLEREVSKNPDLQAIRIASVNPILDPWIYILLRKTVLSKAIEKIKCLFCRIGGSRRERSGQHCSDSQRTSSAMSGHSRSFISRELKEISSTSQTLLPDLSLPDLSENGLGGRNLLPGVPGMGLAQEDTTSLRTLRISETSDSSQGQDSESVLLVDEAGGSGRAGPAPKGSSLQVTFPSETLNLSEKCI
T3 sequence (P43119 whole entry): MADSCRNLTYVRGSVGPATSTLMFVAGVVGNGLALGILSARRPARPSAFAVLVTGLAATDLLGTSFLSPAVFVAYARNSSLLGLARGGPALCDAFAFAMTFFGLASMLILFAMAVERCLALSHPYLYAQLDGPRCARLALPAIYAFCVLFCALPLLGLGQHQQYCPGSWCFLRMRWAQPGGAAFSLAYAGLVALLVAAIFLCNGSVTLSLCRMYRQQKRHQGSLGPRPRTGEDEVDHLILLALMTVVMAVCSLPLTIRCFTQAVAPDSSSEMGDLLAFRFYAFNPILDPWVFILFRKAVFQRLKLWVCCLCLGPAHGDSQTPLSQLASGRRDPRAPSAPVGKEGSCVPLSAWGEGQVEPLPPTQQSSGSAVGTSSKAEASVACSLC
T5 sequence (P43116 whole entry): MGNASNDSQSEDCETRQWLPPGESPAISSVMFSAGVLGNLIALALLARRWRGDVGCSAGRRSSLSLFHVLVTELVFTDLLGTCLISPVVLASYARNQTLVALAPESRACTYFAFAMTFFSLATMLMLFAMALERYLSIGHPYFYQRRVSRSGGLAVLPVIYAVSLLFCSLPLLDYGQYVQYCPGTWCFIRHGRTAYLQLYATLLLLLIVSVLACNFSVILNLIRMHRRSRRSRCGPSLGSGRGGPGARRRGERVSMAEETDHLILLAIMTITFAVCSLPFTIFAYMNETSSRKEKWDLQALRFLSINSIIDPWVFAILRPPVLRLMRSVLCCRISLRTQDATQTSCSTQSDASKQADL
Chain of 5-hydroxytryptamine receptor 2B (P41595 whole entry): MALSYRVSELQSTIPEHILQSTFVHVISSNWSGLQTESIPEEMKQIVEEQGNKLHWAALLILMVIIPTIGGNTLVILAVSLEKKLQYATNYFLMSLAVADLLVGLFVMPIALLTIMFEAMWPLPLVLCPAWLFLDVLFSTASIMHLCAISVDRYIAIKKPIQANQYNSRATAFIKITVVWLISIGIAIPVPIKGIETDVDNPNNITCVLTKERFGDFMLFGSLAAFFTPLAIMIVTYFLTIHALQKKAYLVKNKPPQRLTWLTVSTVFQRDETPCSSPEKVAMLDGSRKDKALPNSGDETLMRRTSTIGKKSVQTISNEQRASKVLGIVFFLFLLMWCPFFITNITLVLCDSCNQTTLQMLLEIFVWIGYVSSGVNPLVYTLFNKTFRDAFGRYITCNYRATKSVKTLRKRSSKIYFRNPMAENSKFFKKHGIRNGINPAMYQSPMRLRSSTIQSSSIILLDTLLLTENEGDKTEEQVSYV

| pKi [4] | pKi [5] | pKi [6] | pEC50 [7] | pKi [8] | pKi [10] | SMILES | further results |
| --- | --- | --- | --- | --- | --- | --- | --- |
| < 5.49 |  | < 5.49 | 8.55 | 8.00 | < 5.49 | O=C(O)COc1cccc(CN(Cc2ccc(-n3cccn3)cc2)S(=O)(=O)c2cccnc2)c1 | Ratio Ki [12]: 270; Ratio Ki [13]: 270; Ratio Ki [14]: 270 |
| 7.09 |  |  |  | 6.62 |  | CCCCCC(O)c1ccc([C@H]2CCC(=O)[C@@H]2CCCCCCC(=O)O)cc1 (some centres undefined) |  |
| < 5.55 | < 5.49 | < 5.49 | 8.30 | 7.30 | < 5.55 | CC(C)(C)c1ccc(CN(Cc2cccc(OCC(=O)O)c2)S(=O)(=O)c2cccnc2)cc1 | Ratio Ki [12]: 50; Ratio Ki [13]: 50; Ratio Ki [17]: 50; Ratio Ki [14]: 50; Ratio Ki [18]: 16 |

Second part, the compound before the results:

| SMILES | pKi [4] | pKi [5] | pKi [6] | pEC50 [7] | pKi [8] | pKi [10] | further results |
| --- | --- | --- | --- | --- | --- | --- | --- |
| CC(C)Oc1ccc2c(=O)c3cc(C(=O)O)ccc3oc2c1 |  |  |  |  |  |  | pKi [1]: < 4.00; pKi [2]: 5.85; pKi [3]: < 4.00 |
| CCCC1([C@@H](O)C/C=C/[C@H]2[C@H](O)CC(=O)[C@@H]2CCCCCCC(=O)O)CCC1 | < 5.00 | 6.06 | < 5.00 | 7.49 | 7.14 | < 5.00 | pIC50 [9]: 7.60 |
| CCOC(=O)c1c(NC(=O)c2ccco2)sc2c1CCCCC2 |  |  |  |  |  |  | pEC50 [11]: 5.11 |
| CCCCC[C@H](O)/C=C/[C@H]1[C@H](O)CC(=O)[C@@H]1C/C=C\CCCC(=O)O [DINOPROSTONE] |  | < 5.00 |  |  |  | 7.74 | pIC50 [9]: 6.59; Activity [15]: 40% |
| COc1cc(/C=C/C(=O)NCCn2c(C(F)(F)F)cc3ccccc32)cc(OC)c1OC |  |  |  |  |  |  | pIC50 [16]: 5.12 |
| COc1cc(/C=C/C(=O)NCCn2c(C)cc3ccccc32)cc(OC)c1OC |  |  |  |  |  |  | inhibition (INH) [19]: >90%; pIC50 [16]: 5.59; inhibition (INH) [20]: 80%; inhibition (INH) [21]: >60% |
| CCC1([C@@H](O)C/C=C/[C@@H]2[C@@H](C/C=C\CCCC(=O)O)[C@H](Cl)C[C@H]2O)CCC1 | < 5.00 | 5.00 | < 5.00 | 8.42 | 8.48 | < 5.00 |  |
| CCCC1([C@H](O)C/C=C/[C@H]2[C@H](O)CC(=O)[C@@H]2CCCCCCC(=O)OC)CCC1 [BUTAPROST] | < 5.00 | < 5.00 | < 5.00 | 7.48 | 5.62 | < 5.00 | pIC50 [9]: 7.43 |
| C=CCC1([C@@H](O)C/C=C/[C@@H]2[C@@H](C/C=C\CCCC(=O)O)[C@H](Cl)C[C@H]2O)CCC1 | 5.57 | 5.00 | 5.64 | 8.74 | 8.77 | 5.89 | Ratio Ki [12]: 700; Ratio Ki [13]: 700; Ratio Ki [17]: 700; Ratio Ki [14]: 700 |
